Test [1] concerns Rye. Description: PRE germination synergy in Petri dishes. The test is classed as in vivo, ryegrass. Particulars: preemergence, Topramezone / Mentha spicata, rate in label. On the procedure:
(§1) Petri Dish. Seed impacts. Dishes layered with filter paper and filtered water added with various broadleaf and unwanted grass species to initiate germination. Conducted in the dark at 75/60° F. day night temperature with relative humidity at 50%. […] The percent volume/volume of extract to water carrier is summarized above. The amount in mg/ml was calculated based on the percent of extract mixed with water. […] Seeds have water added every two days. […] Plates are exposed to 12/12 hour day/night cycle after 7 days.

The test system of another test is 2-leaf corn. The experiment in a line: Disrupting metabolism of herbicide resistant plants in pots. The following applies: POST to 2-leaf corn, Topramezone / Mentha piperata, rate in label. The test is classed as in vivo. The source says: (§2) Testing involves the same methods as listed above but with weeds/plants which are resistant to herbicides. An example plant is corn, which uses a cytochrome P450 enzyme(s) to detoxify certain commercially available herbicides (Ex. mesotrione). Corn also uses a glutathione S-transferase detoxification system for other commercially available herbicides (ex. Atrazine). Still other examples of herbicide detoxification include “Phase I” reactions—dechlorination, hydroxylation, decarboxylation, dealkylation, oxidation/reduction, and hydrolysis are the initial chemical reactions that occur. These reactions detoxify the herbicide and predispose the resultant metabolites to conjugation. “Phase II” reactions are another example, by conjugation with sugars, amino acids or natural plant constituents (metabolites are strongly bound). Also, “Phase II” I reactions are unique to plants and consist of secondary conjugation reactions or the formation of insoluble bound residues. Most crops grown in the world utilize detoxification, mixed function oxidase, enzymes to protect themselves from herbicides and other xenobiotics. Weeds also utilize this system of enzymes, as well as other biochemical actions, to prevent herbicides from damaging or killing the weeds. […]

The next test has as its system seedlings. Description: PRE germination synergy in Petri dishes, bleaching. The test is classed as in vivo, ryegrass and Timothy. The following applies: preemergence, Topramezone / Mentha spicata, rate in label. On the procedure:
as §1

Test [2] has as its system Timothy. Description: Disrupting metabolism of herbicide resistant plants in pots, green loss. Type of test: in vivo. The following applies: POST, Topramezone / Mentha piperata, rate in label.
Source text: as §2

Test [3] concerns Timothy. The experiment in a line: PRE germination synergy in Petri dishes. The test is classed as in vivo. Particulars: preemergence, Topramezone / Mentha spicata, rate in label. On the procedure:
as §1

For test [4], the system named is Timothy. The experiment in a line: PRE synergy of weed control in pots/soil. Particulars: two weeks after planting, Pendimethalin / Mentha piperata, rate in label.
Protocol: (§4) Potted soil. Commercial potting mix is used as a base with approximately 2 inches of 5% organic matter soil used on the top. Seeds are sown in the soil between 1 cm and 2.5 cm (as indicated by best practices for each plant-seed), filtered water added with various broadleaf and grass species to initiate germination. Conducted in the dark at 75/60 F day night temperature with relative humidity at 50%. Seeds are allowed to imbibe water for 24 hours. […] Seeds, wells have water added every two days. Seeds are monitored for 14 days following treatment. Visual rating for germination, radicle, shoot, and root elongation are recorded. Commercial herbicides are also used at the US label recommended rate for treatment as a positive control.
In test [5] the test system is Rye. The experiment in a line: PRE synergy of weed control in pots/soil. The following applies: two weeks after planting, Pendimethalin / Mentha piperata, rate in label.
Protocol: as §4
For test [6], the system named is Timothy. The experiment in a line: POST synergy treatments in pots. The test is classed as in vivo. Particulars: POST emergence to 10 cm plants. On the procedure:
(§3) Potted plants. These assays are conducted in pots using a commercial potting media to establish broadleaf and grass plants with at least one true leaf. The cotyledons are not treated in these assays.

In test [7] the test system is Rye. Description: POST synergy treatments in pots. Type of test: in vivo, ryegrass. Particulars: POST emergence to 10 cm plants. On the procedure: as §3
The mark [8] stands for this setting: Atrazine / Mentha piperata, rate in label.
Setting [9] is: Glyphosate / Mentha piperata, 7 days.
Where [10] appears, read: Glyphosate / Mentha piperata, 14 days.

For the compound `Cc1c(C(=O)c2cnn(C)c2O)ccc(S(C)(=O)=O)c1C1=NOCC1` [Topro 1x alone, Topramezone], the “PRE Germination % control Rye” value in the test with Rye [1] turned out to be 50%. Also, in the test on 2-leaf corn, the “% Control 14 Day” value came out at 0%. Also, the “% bleaching of seedlings” value with seedlings came to 50%. Moreover, the “% Green loss Timothy 14 Day” value in the test with Timothy [2] is listed as 5%. The “PRE Germination % control Timothy” value in the test on Timothy [3] turned out to be 60%.
In the case of `CCC(CC)Nc1c([N+](=O)[O-])cc(C)c(C)c1[N+](=O)[O-]` [Pendi 1x, Pendimethalin], the “% control Timothy” value in the test on Timothy [4] came out at 50%; in the test on Timothy [4] (listed as Pendi 2x) it was 75%; in the test with Timothy [4] (listed as Pendi 4x), 83%. In addition, the “% control Rye” value turned out to be 37% in the test on Rye [5], 57% in the test with Rye [5] (listed as Pendi 2x) and 92% with Rye [5] (listed as Pendi 4x).
As to `CCNc1nc(Cl)nc(NC(C)C)n1` [Atrazine 1x alone, Atrazine], in the test with Timothy [6] (setting [8]), the “% control Timothy” value came out at 60%. Besides, the “% control Rye” value with Rye [7] (setting [8]) came out at 55%.
Turning to `O=C(O)CNCP(=O)(O)O` [Glyphosate 1x alone, Glyphosate], the “% control Timothy 7 days” value in the test on Timothy [6] (setting [9]) is listed as 0%. Besides, the “% control Timothy 14 Days” value with Timothy [6] (setting [10]) was found to be 90%. For the same compound, the “% control Rye 7 days” value with Rye [7] (setting [9]) is 0%. The “% control Rye 14 Days” value with Rye [7] (setting [10]) amounted to 85%.

(Values after US20240016161A1, “HERBICIDAL MENTHA PLANT EXTRACT COMPOSITIONS AND METHODS OF USING SAME” (Harpe Bioherbicide Solutions Inc., priority 2020, published 2024).)
